From ChEMBL document CHEMBL1201862, “PubChem BioAssay data set” (2004)
Structures can show the parent of a compound that is named as a salt. Calls of active or inactive are those of the source.

Legend:
Cytochrome P450 2C19 = Cytochrome P450 2C19 (Homo sapiens, UniProt P33261); experiment: Cytochrome panel assay with activity outcomes. Panel member name: p450-cyp2c19 Compounds with AC50 equal or less than 10 uM are considered active; format: functional; conditions: read-out: AC50
Cytochrome P450 2D6 = Cytochrome P450 2D6 (Homo sapiens, UniProt P10635);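 further: CYP2D6 member of a cytochrome P450 panel assay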
Cytochrome P450 2D6, sequence (P10635 whole entry): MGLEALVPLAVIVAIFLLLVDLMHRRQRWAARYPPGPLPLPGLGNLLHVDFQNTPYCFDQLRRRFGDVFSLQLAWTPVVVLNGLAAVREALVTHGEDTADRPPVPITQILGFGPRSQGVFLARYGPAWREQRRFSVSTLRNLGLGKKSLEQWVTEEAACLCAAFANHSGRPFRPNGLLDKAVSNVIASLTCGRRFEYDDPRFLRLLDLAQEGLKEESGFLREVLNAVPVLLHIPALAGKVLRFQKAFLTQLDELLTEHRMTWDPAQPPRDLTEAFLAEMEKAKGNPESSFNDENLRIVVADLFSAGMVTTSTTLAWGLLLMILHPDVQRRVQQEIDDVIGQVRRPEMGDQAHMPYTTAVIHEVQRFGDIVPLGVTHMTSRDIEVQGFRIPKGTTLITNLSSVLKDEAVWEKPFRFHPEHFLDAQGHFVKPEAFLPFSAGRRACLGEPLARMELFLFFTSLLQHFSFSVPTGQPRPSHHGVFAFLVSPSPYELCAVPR

Cytochrome P450 2C9 = Cytochrome P450 2C9 (Homo sapiens, UniProt P11712)
Cytochrome P450 2C9, sequence (P11712 whole entry, the tested form may be a part): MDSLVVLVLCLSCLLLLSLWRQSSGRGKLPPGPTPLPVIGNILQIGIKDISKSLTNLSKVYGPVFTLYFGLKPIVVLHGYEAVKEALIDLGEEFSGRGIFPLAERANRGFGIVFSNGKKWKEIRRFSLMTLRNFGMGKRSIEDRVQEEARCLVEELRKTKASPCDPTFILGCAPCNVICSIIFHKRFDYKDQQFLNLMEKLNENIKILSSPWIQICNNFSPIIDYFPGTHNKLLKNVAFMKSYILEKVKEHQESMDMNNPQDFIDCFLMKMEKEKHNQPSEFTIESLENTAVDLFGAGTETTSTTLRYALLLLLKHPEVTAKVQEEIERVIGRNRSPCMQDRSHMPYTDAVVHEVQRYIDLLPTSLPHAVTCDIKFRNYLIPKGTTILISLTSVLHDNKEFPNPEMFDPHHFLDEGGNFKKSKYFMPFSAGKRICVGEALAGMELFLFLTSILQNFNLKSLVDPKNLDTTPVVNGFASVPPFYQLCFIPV

[1] = target: T1, RNA-binding protein pos-1 (Caenorhabditis elegans, UniProt G5EF15); experiment: inhibitors of POS-1/mex-3 RNA binding, dose response, biochemical, fluorescence polarization (AID 1964);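 further: purified POS-1 fused to maltose binding protein made in E. coli; potency of compounds blocking POS-1 binding to fluorescent RNA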
T1 sequence (G5EF15 whole entry): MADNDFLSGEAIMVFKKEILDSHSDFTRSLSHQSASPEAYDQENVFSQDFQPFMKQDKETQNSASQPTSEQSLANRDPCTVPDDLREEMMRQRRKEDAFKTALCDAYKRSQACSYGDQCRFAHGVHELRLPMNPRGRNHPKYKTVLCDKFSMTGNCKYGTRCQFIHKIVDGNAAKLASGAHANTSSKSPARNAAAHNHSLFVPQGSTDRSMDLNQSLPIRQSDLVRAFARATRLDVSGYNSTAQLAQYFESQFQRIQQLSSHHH

[2] = target: T2, Zinc finger protein mex-5 (Caenorhabditis elegans, UniProt Q9XUB2); experiment: MEX-5/TCR-2 RNA interaction inhibitors, dose response, biochemical, C. elegans, fluorescence polarization (AID 1960)
T2 sequence (Q9XUB2 whole entry): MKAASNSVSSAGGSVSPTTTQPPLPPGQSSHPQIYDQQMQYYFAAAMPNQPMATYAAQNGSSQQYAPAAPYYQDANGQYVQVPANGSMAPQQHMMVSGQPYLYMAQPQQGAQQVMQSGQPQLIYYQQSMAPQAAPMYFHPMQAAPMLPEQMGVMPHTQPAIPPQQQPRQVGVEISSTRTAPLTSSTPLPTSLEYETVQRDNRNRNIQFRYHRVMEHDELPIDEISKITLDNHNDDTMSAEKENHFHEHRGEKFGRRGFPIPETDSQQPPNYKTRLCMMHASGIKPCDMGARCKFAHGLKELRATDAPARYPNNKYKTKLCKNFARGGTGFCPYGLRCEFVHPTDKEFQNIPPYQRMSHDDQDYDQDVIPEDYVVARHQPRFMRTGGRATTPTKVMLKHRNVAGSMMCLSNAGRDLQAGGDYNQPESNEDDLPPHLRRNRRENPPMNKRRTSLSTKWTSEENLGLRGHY

[3] = C. albicans growth with fluconazole, confirmation, fluorescence, retest (AID 2467); format: functional, cell-based
Streptokinase A = target: T3, Streptokinase A (Streptococcus pyogenes serotype M1, UniProt P10520); experiment: S. pyogenes streptokinase expression inhibitors, potency, dose response, plasminogen activation absorbance, OD405 (AID 1914); format: functional, Streptococcus pyogenes M1 GAS;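 further: secreted streptokinase activity via plasminogen activation per viability signal from cell pellet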
T3 sequence (P10520 whole entry): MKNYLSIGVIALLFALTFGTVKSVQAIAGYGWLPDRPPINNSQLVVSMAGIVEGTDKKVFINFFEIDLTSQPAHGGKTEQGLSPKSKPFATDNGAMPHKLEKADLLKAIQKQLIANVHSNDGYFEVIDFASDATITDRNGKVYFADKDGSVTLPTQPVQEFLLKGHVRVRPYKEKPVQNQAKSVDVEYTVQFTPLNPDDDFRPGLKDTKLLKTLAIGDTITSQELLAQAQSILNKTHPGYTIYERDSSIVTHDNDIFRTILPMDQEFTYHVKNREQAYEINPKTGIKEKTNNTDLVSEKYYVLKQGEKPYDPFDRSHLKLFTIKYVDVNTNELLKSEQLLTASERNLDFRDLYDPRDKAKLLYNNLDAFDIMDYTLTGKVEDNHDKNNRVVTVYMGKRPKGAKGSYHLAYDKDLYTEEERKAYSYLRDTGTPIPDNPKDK

Streptococcus = experiment: Group A Streptococcus viability loss, dose response, counter-screen for streptokinase expression inhibitor project, luminescence, BacTiterGlo (AID 1915); format: functional, organism-based;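 further: potency for reduction of bacterial viability or growth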
[4] = NIH-3T3 fibroblast cytotoxicity, dose response, cytotoxicity control, cell-based, fluorescence, Alamar Blue, secondary assay (AID 2327); format: functional;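 further: NIH-3T3 mouse fibroblasts cultured with fluconazole at 8 µg/mL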
[5] = system: Streptococcus sp. 'group A'; experiment: growth inhibition of control SK(-) GAS strain, dose response, counter-screen for streptokinase expression inhibitor project, luminescence, kanamycin, BacTiterGlo, confirmation (AID 1900); format: functional, organism-based
Cytochrome P450 3A4 = Cytochrome P450 3A4 (Homo sapiens, UniProt P08684);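 further: CYP3A4 tested as one member of a cytochrome P450 panel screen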
Cytochrome P450 3A4, sequence (P08684 whole entry): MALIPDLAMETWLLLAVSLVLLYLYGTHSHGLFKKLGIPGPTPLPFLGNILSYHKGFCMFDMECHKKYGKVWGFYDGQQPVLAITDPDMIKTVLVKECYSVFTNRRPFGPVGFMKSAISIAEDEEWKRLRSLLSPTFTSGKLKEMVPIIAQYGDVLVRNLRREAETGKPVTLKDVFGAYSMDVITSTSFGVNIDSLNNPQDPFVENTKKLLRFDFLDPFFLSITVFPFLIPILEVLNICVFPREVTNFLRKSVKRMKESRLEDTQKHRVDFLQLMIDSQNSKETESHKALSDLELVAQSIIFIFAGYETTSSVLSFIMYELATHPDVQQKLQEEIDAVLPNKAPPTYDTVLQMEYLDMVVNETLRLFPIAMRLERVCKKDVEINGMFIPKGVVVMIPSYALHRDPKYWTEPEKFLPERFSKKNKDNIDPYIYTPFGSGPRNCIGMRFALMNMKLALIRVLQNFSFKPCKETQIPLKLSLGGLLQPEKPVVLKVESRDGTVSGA

Cytochrome P450 1A2 = target: T4, Cytochrome P450 1A2 (Homo sapiens, UniProt P05177);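 further: PubChem cytochrome P450 panel assay, CYP1A2 panel member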
T4 sequence (P05177 whole entry): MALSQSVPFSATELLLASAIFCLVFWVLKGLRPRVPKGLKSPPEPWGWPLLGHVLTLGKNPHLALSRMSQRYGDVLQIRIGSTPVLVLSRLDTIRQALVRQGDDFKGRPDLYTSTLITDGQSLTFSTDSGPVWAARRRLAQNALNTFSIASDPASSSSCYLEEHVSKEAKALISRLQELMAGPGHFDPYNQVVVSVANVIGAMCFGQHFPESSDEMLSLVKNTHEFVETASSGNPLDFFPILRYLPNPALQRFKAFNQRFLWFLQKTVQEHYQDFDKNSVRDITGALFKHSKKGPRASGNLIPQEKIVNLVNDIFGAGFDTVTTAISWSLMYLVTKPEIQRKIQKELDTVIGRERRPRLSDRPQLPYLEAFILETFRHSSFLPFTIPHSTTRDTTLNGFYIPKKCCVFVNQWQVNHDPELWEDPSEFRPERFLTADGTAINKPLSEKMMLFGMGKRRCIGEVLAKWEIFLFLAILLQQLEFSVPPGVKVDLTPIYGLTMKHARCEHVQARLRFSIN

[6] = target: T5, Corticotropin-releasing factor receptor 2/Corticotropin-releasing factor-binding protein (Homo sapiens, UniProt P24387+Q13324); experiment: activators of CRF receptor 2 with binding protein – uHTS hits, confirmation (AID 602473); format: functional; conditions: read-out: EC50_Mean
T5 sequence (Q13324 whole entry): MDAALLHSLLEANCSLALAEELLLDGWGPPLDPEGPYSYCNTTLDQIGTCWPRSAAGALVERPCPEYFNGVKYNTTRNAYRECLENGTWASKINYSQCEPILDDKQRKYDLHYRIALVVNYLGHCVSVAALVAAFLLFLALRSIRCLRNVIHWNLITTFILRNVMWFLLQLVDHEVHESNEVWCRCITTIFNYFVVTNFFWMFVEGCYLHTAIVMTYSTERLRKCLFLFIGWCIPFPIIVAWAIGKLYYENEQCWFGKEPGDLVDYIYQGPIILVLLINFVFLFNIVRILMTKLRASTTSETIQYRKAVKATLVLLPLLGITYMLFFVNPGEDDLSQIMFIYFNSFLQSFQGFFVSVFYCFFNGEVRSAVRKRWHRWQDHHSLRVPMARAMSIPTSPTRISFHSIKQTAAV
T5 sequence (P24387 whole entry): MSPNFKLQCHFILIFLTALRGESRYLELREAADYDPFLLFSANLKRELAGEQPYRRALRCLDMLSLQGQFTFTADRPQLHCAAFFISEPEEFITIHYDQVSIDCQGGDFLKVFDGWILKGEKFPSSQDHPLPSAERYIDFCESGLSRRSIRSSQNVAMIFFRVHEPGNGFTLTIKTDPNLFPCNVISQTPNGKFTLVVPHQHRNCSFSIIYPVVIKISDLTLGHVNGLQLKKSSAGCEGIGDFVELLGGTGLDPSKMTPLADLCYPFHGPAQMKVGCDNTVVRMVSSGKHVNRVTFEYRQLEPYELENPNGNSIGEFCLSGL

[7] = inhibitors of firefly luciferase expression or activity, dose response, H4 neuroglioma cells, luminescence (AID 1990); format: functional, cell-based
[8] = inhibitors of SNCA 5'UTR-driven reporter translation, confirmation, H4 neuroglioma cells, luminescence (AID 1988); format: functional, cell-based

Cytochrome P450 2C19, sequence (P33261 whole entry): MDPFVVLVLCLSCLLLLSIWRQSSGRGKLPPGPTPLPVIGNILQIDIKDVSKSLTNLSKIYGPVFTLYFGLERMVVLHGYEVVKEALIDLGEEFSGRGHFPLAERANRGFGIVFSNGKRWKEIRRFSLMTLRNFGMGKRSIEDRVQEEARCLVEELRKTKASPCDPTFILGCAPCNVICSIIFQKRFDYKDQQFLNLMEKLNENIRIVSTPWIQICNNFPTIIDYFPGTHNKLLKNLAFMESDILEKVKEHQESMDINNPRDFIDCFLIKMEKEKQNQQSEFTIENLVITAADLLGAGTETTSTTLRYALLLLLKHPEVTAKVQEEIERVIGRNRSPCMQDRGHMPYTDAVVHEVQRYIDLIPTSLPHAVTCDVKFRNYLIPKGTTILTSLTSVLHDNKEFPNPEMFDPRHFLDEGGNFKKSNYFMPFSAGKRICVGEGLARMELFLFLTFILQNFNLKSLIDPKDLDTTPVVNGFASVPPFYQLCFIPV

Row | Structure (SMILES) | AC50 (Cytochrome P450 2C19) | EC50 [1] | EC50 [2] | also measured
1 | CCC/C=C(\CCC)C(NC(=O)c1ccc(C(=O)OC)cc1)c1ccc(C(=O)OC)cc1 (configuration not stated) | 10 µM (inconclusive) | – | – | AC50 (Cytochrome P450 2D6): 25.1 µM (inconclusive)
2 | COc1cc(C(=O)Nc2ccc(-c3nnc(-c4ccco4)o3)cc2)cc(OC)c1OC | 6.31 µM (inconclusive) | – | – | AC50 (Cytochrome P450 2C9): 7.94 µM (inconclusive)
3 | CCCS(=O)(=O)N1CCCC(C(=O)NCC2CCCO2)C1 (configuration not stated) | 39.8 µM (inconclusive) | – | – | AC50 (Cytochrome P450 2C9): 8.91 µM (inconclusive)
4 | CCOC(=O)c1cc(=O)n2nc(-c3ccc(C)cc3)nc2s1 | – | > 300 µM (not active) | > 300 µM (not active) | –
5 | CC(=O)NNC(=S)NC(=O)C(c1ccccc1)c1ccccc1 | – | – | – | EC50 [3]: 1.52 µM (active); EC50 (Streptokinase A): > 150 µM (not active); EC50 (Streptococcus): 10.4 µM (active); EC50 [4]: > 150 µM (inactive); EC50 [5]: 3.24 µM (active)
6 | O=C(NNC(=O)c1csc(-c2cccnc2)n1)c1ccccc1 | – | > 300 µM (not active) | > 300 µM (inconclusive) | –
7 | CCOC(=O)c1ccc(-n2c(C)ccc2C)cc1 | – | > 300 µM (not active) | > 300 µM (not active) | –
8 | CCOC(=O)N1CCC(NC(=O)C(Cc2ccccc2)NC(=O)C2CCCCC2)CC1 (configuration not stated) | – | > 300 µM (not active) | > 300 µM (not active) | –
9 | S=C(NCc1ccncc1)Nc1ccc(Cl)cc1Cl | – | > 300 µM (not active) | > 300 µM (not active) | –
10 | CCNc1ncc2nc(CCc3ccccc3)c(=O)n(-c3ccccc3)c2n1 | 31.6 µM (inconclusive) | – | – | –
11 | CCCC[C@@H]1C[C@H]1C(NC(=O)c1cccs1)c1ccc(-c2ccccc2)cc1 (some centres not stated) | 3.16 µM (inconclusive) | – | – | AC50 (Cytochrome P450 3A4): 6.31 µM (inconclusive); AC50 (Cytochrome P450 1A2): 2 µM (inconclusive)
12 | CCN(CC)C(=O)CSc1nnc(C2CCCCC2)o1 | 11.2 µM (inconclusive) | – | – | –
13 | COc1ccc(/N=C/c2c(O)c3ccccc3n2C(C)=O)cc1 | – | > 300 µM (inconclusive) | > 300 µM (inconclusive) | EC50 [6]: 6.35 µM (active)
14 | O=C(O)/C=C\C(=O)NCc1ccccc1 | 0.0158 µM (inconclusive) | – | – | AC50 (Cytochrome P450 2D6): 0.794 µM (inconclusive)
15 | COc1cc(OC)c(/C=C2/C(=O)Nc3ccccc32)c(OC)c1 | 31.6 µM (inconclusive) | – | – | –
16 | Nc1ccn([C@@H]2O[C@H](CO)[C@@H](O)[C@@H]2O)c(=O)n1 [CYTARABINE HYDROCHLORIDE] | – | – | – | EC50 [7]: < 0.1 µM (active); EC50 [8]: < 0.1 µM (active)
17 | OCCN1CCN(CCC=C2c3ccccc3Sc3ccc(Cl)cc32)CC1 [ZUCLOPENTHIXOL] | 2.51 µM (inconclusive) | – | – | AC50 (Cytochrome P450 3A4): 12.6 µM (inconclusive); AC50 (Cytochrome P450 2D6): 10 µM (inconclusive)
